{
  "source": "patent US20230131111A1",
  "about": "“BIODEGRADABLE POLYIMIDAZOLIUMS AND OLIGOIMIDAZOLIUMS” (Nanyang Technological University, priority 2020, published 2023)",
  "key": {"P. aeruginosa PAO1 [1]": {"test_system": "P. aeruginosa PAO1", "experiment": "MIC90 broth microdilution", "assay_type": "cell-based, Pseudomonas aeruginosa"}, "MRSA BAA39": {"test_system": "MRSA BAA39", "experiment": "MIC broth microdilution", "assay_type": "cell-based, Staphylococcus aureus"}, "S. aureus (SA)": {"test_system": "S. aureus (SA)", "experiment": "MIC broth microdilution", "assay_type": "cell-based, Staphylococcus aureus"}, "E. coli (EC)": {"test_system": "E. coli (EC)", "experiment": "MIC broth microdilution", "assay_type": "cell-based, Escherichia coli"}, "3T3 cells": {"test_system": "3T3 cells", "experiment": "Mammalian cell cytotoxicity, MTT", "assay_type": "cell-based, Mouse"}, "MRSA BAA39 biofilm": {"test_system": "MRSA BAA39 biofilm", "experiment": "MBEC antibiofilm assay", "settings": "4 h treatment"}, "P. aeruginosa O1 biofilm": {"test_system": "P. aeruginosa O1 biofilm", "experiment": "MBEC antibiofilm assay", "settings": "4 h treatment"}, "P. aeruginosa PAER": {"test_system": "P. aeruginosa PAER", "experiment": "MIC90 broth microdilution", "assay_type": "cell-based, Pseudomonas aeruginosa"}, "A. baumannii AB-1 (MDR)": {"test_system": "A. baumannii AB-1 (MDR)", "experiment": "MIC90 broth microdilution", "assay_type": "cell-based, Acinetobacter baumannii"}, "E. coli 958 (MDR)": {"test_system": "E. coli 958 (MDR)", "experiment": "MIC90 broth microdilution", "assay_type": "cell-based, Escherichia coli"}, "P. aeruginosa PAK pmrB12": {"test_system": "P. aeruginosa PAK pmrB12", "experiment": "MIC90 broth microdilution", "assay_type": "cell-based, Pseudomonas aeruginosa"}, "A. baumannii X26": {"test_system": "A. baumannii X26", "experiment": "MIC90 broth microdilution", "assay_type": "cell-based, Acinetobacter baumannii", "design": "MIC90 A. baumanii X26 (MDR): unit not given here"}, "A. baumannii X39": {"test_system": "A. baumannii X39", "experiment": "MIC90 broth microdilution", "assay_type": "cell-based, Acinetobacter baumannii", "design": "MIC90 A. baumanii X39 (XDR): unit not given here"}, "A. baumannii X40 (EDR)": {"test_system": "A. baumannii X40 (EDR)", "experiment": "MIC90 broth microdilution", "assay_type": "cell-based, Acinetobacter baumannii"}, "[2]": {"test_system": "Burkholderia thailandensis 700388", "assay_type": "cell-based", "design": "MIC90 Burkholderia thailandensis 700388: unit not given here"}, "K. pneumoniae KPNR (MDR)": {"test_system": "K. pneumoniae KPNR (MDR)", "experiment": "MIC90 broth microdilution", "assay_type": "cell-based, Klebsiella pneumoniae"}, "E. cloacae CRE (MDR)": {"test_system": "E. cloacae CRE (MDR)", "experiment": "MIC90 broth microdilution", "assay_type": "cell-based, Enterobacter cloacae"}, "[3]": {"test_system": "P. aeruginosa PAES (clinical)", "experiment": "MIC90 broth microdilution", "assay_type": "cell-based, Pseudomonas aeruginosa"}, "[4]": {"test_system": "K. pneumoniae SGH10 (clinical strain)", "experiment": "MIC90 broth microdilution", "assay_type": "cell-based, Klebsiella pneumoniae"}, "[5]": {"test_system": "K. pneumoniae BAK085 (MDR)", "experiment": "MIC90 broth microdilution", "assay_type": "cell-based, Klebsiella pneumoniae"}, "K. pneumoniae M7 (MDR)": {"test_system": "K. pneumoniae M7 (MDR)", "experiment": "MIC90 broth microdilution", "assay_type": "cell-based, Klebsiella pneumoniae"}, "E. cloacae ECLOS (MDR)": {"test_system": "E. cloacae ECLOS (MDR)", "experiment": "MIC90 broth microdilution", "assay_type": "cell-based, Enterobacter cloacae"}, "HEK293 cells": {"test_system": "HEK293 cells", "experiment": "Mammalian cell cytotoxicity, MTT", "assay_type": "cell-based, Human"}, "HepG2 cells": {"test_system": "HepG2 cells", "experiment": "Mammalian cell cytotoxicity, MTT", "assay_type": "cell-based, Human"}, "A549 cells": {"test_system": "A549 cells", "experiment": "Mammalian cell cytotoxicity, MTT", "assay_type": "cell-based, Human"}, "P. aeruginosa PAO1 [6]": {"test_system": "P. aeruginosa PAO1", "experiment": "Propidium iodide (PI) staining", "assay_type": "cell-based, Pseudomonas aeruginosa", "settings": "1 h incubation", "protocol": "P. aeruginosa PAO1 was used in the PI experiments. Cells grown in MHB were harvested in mid-Log phase and resuspended in fresh MHB. PIM1 or colistin (positive control) was added at the indicated concentrations. After 1-hour incubation with the antimicrobials, the cell suspensions were sampled to determine cells numbers by plate counting. The remaining cells were washed with PBS and stained with PI (15 μg/mL) according to the manufacturer's protocol. Attune N×T Flow cytometry (Thermo Fisher Scientific, USA) was used to determine the percent of cells that had taken up PI (dead cells). A Zeiss LSM800 confocal microscope was used to image cells on a polylysine-coated petri-dish (MatTek Corporation, USA)."}, "K. pneumoniae (#13883)": {"test_system": "K. pneumoniae (#13883)", "experiment": "Neutropenic lung infection model", "assay_type": "in vivo, BALB/c mice", "protocol": "Immunosuppression was induced by IP injection of cyclophosphamide (150 mg/kg) at day 4 and cyclophosphamide (100 mg/kg) at day 1 into BALB/c female mice (8-9 weeks of age) before infection was introduced. Lung infection was established by intratracheal delivery of MRSA USA300 or K. pneumoniae (#13883). […] The mice were monitored for survival over one week. In a separate experiment, mice lungs were harvested 26 h post-infection and homogenized, followed by plating to check the bacterial burden. The animal study protocols were approved by animal ethics and welfare committee at Ningbo University."}, "[7]": {"settings": "half-maximal inhibition of cell viability"}},
  "data": [
    {"substance": "Benzalkonium chloride [C3]", "values": [
      {"measurement": "MIC PAO1", "setting": "P. aeruginosa PAO1 [1]", "result": 128, "unit": "µg/mL"},
      {"measurement": "MIC MRSA BAA39", "setting": "MRSA BAA39", "result": 1, "unit": "µg/mL"},
      {"measurement": "MIC SA", "setting": "S. aureus (SA)", "result": "1 to 2", "unit": "µg/mL"},
      {"measurement": "MIC EC", "setting": "E. coli (EC)", "result": 16, "unit": "µg/mL"},
      {"measurement": "IC50", "setting": "3T3 cells; mouse embryonic fibroblast 3T3 cells, MTT", "result": 10, "unit": "µg/mL"},
      {"measurement": "antibiofilm efficacy rank", "setting": "MRSA BAA39 biofilm", "result": "P(ImC8)>P(ImC8-co-ImC8D)-50%˜P(ImC6)>BAC"},
      {"measurement": "antibiofilm potency order", "setting": "P. aeruginosa O1 biofilm", "result": "P(ImC8)>P(ImC8-co-ImC8D)-50%>P(ImC6)>BAC"}
    ]},
    {"substance": "colistin", "values": [
      {"measurement": "MIC90 P. aeruginosa PAO1", "setting": "P. aeruginosa PAO1 [1]", "result": 2, "unit": "µg/mL"},
      {"measurement": "MIC90 P. aeruginosa PAER", "setting": "P. aeruginosa PAER", "result": 1, "unit": "mg per mL"},
      {"measurement": "MIC90 P. aeruginosa PAER (MDR)", "setting": "P. aeruginosa PAER", "result": 1, "unit": "µg/mL"},
      {"measurement": "MIC90 A. baumanii AB-1 (MDR)", "setting": "A. baumannii AB-1 (MDR)", "result": 2, "unit": "mg per mL"},
      {"measurement": "MIC90 A. baumannii AB-1 (MDR)", "setting": "A. baumannii AB-1 (MDR)", "result": 2, "unit": "µg/mL"},
      {"measurement": "MIC90 E. coli 958 (MDR)", "setting": "E. coli 958 (MDR)", "result": 2, "unit": "µg/mL"},
      {"measurement": "MIC90 P. aeruginosa PAK pmrB12", "setting": "P. aeruginosa PAK pmrB12", "result": 16, "unit": "µg/mL"},
      {"measurement": "MIC90 A. baumanii X26 (MDR)", "setting": "A. baumannii X26", "result": 2},
      {"measurement": "MIC90 A. baumannii X26 (EDR)", "setting": "A. baumannii X26", "result": 2, "unit": "µg/mL"},
      {"measurement": "MIC90 A. baumanii X39 (XDR)", "setting": "A. baumannii X39", "result": "4-8"},
      {"measurement": "MIC90 A. baumannii X39 (EDR)", "setting": "A. baumannii X39", "result": "4 to 8", "unit": "µg/mL"},
      {"measurement": "MIC90 A. baumannii X40 (EDR)", "setting": "A. baumannii X40 (EDR)", "result": 8, "unit": "µg/mL"},
      {"measurement": "MIC90 B. Thailandensis 700388", "setting": "[2]", "result": ">128", "unit": "µg/mL"},
      {"measurement": "MIC90 Burkholderia thailandensis 700388", "setting": "[2]; naturally colistin-resistant", "result": ">128"},
      {"measurement": "MIC90 K. pneumoniae KPNR (MDR)", "setting": "K. pneumoniae KPNR (MDR)", "result": 2, "unit": "µg/mL"},
      {"measurement": "MIC90 E. cloacae CRE (MDR)", "setting": "E. cloacae CRE (MDR)", "result": 2, "unit": "µg/mL"},
      {"measurement": "MIC90 P. aeruginosa PAES (clinical)", "setting": "[3]", "result": 2, "unit": "µg/mL"},
      {"measurement": "MIC90 K. pneumoniae SGH10 (clinical strain)", "setting": "[4]", "result": 2, "unit": "µg/mL"},
      {"measurement": "MIC90 K. pneumoniae BAK085 (MDR)", "setting": "[5]", "result": 2, "unit": "µg/mL"},
      {"measurement": "MIC90 K. pneumoniae M7 (MDR)", "setting": "K. pneumoniae M7 (MDR)", "result": "16 to 32", "unit": "µg/mL"},
      {"measurement": "MIC90 E. cloacae ECLOS (MDR)", "setting": "E. cloacae ECLOS (MDR)", "result": 16, "unit": "µg/mL"},
      {"measurement": "IC50 Mouse fibroblast (3T3)", "setting": "3T3 cells; [7]", "result": ">1024", "unit": "μg per mL"},
      {"measurement": "IC50 Human kidney (HEK293)", "setting": "HEK293 cells; MTT", "result": 64, "unit": "µg/mL"},
      {"measurement": "IC50 Human kidney (HEK293)", "setting": "HEK293 cells; [7]", "result": 64, "unit": "μg per mL"},
      {"measurement": "IC50 Human liver (HepG2)", "setting": "HepG2 cells; MTT", "result": ">1024", "unit": "µg/mL"},
      {"measurement": "IC50 Human liver (HepG2)", "setting": "HepG2 cells; [7]", "result": ">1024", "unit": "μg per mL"},
      {"measurement": "IC50 Human epithelial (A549)", "setting": "A549 cells; MTT", "result": ">1,024 μg/ml"},
      {"measurement": "IC50 Human epithelial (A549)", "setting": "A549 cells; [7]", "result": ">1024", "unit": "μg per mL"},
      {"measurement": "propidium iodide uptake", "setting": "P. aeruginosa PAO1 [6]", "result": "almost all cells treated with colistin were stained"},
      {"measurement": "survival", "setting": "K. pneumoniae (#13883); 20 mg/kg intratracheal, one week", "result": "survived"},
      {"measurement": "reduction of K. pneumoniae in lung", "setting": "K. pneumoniae (#13883); single 20 mg/kg intratracheal, versus infection control", "result": "similar"}
    ]}
  ]
}
